Here are results for 1 compound from US11800869B2, “Use of 6-oxo-1,4,5,6-tetrahydropyridazine-3-carboxylic acid, 1-methyl 6-oxo-1,4,5,6-tetrahydropyridazine-3-carboxylic acid and 1-alkyl-6-oxo-1,4,5,6-tetrahydropyridazine-3-carboxylic acid for improving growth performance in plants” (Advanced Crop Chem LLP, priority 2020, dated 2023).

Assay [1] deals with Wheat seeds (Var. VitPro). Briefly: Wheat seed treatment, leaf wilting under drought (Example 16). The class given is in vivo. The settings on record: Drought stress; for Wilted leaves: 0 mM: 40; for Total leaves: 0 mM: 47; for % Wilted leaves: 0 mM: 85%. Here is the method:
Wheat seeds were treated with 6-oxo-1,4,5,6 tetrahydropyridazine-3-carboxylic and leaf wilting was tracked to examine the resistance to drought in the seedlings as shown in Table 6. Wheat seeds (Var. VitPro) were treated with an aqueous solution of either 0 mM, 1 mM, 0.5 mM, 0.1 mM or 0.01 mM 6-oxo-1,4,5,6 tetrahydropyridazine-3-carboxylic acid at pH 5.7-5.8. The 0 mM 6-oxo-1,4,5,6-tetrahydropyridizine-3-carboxylic acid seeds were imbibed in aqueous solution containing only the soft soap and glycerol. The plants were allowed to grow to Zadoks GS13 (FIG. 1) when water was withheld until plants in all of the treatments had wilted leaves.

The next assay has as its system wheat seedlings. Briefly: Foliar treatment of wheat seedlings, recovery from drought stress (Example 18). Conditions: Drought stressed 10 days then 16 days regrowth. It counts as in vivo. More on the design: dose or concentration left out as unconfirmed. How it is done: Sets of wheat seedlings were given two foliar treatments with 6-oxo-1,4,5,6-tetrahydropyridazine-3-carboxylic acid to examine seedling recovery from drought stress. […] Seedlings were given two foliar treatments: the first at Zadoks GS 12 and at Zadoks GS 14 (FIG. 1). The plants were grown in a greenhouse and fed a standard plant nutrient solution. The plants were drought stressed for 10 days after which water and nutrients were resumed and the plants were allowed to grow for 16 days.

Each structure is given as a SMILES string.

`O=C1CCC(C(=O)O)=NN1` [THP, 6-oxo-1,4,5,6 tetrahydropyridazine-3-carboxylic acid]: the Wilted leaves in assay [1] (seed treatment 0.1 mM) stood at 18; in assay [1] (seed treatment 0.5 mM), 14; in assay [1] (seed treatment 1 mM) it was 19. The Total leaves in assay [1] (seed treatment 0.1 mM) turned out to be 61; in assay [1] (seed treatment 0.5 mM) it was 64; in assay [1] (seed treatment 1 mM), 57. Besides, the “% Wilted leaves” value in assay [1] (seed treatment 0.1 mM) worked out at 30%; in assay [1] (seed treatment 0.5 mM), 22%; in assay [1] (seed treatment 1 mM), 33%. The “Number of seed heads, avg.” value in the assay on wheat seedlings (untreated drought stressed 7.1, normal water 5.4) worked out at 8.3. For the same compound, the “Total foliar fresh wt., avg.” value with wheat seedlings (untreated drought stressed 28.2, normal water 32.3) stood at 33.4 g.
